From patent US5047414A, “2-(aminoalkylthio)methyl-1,4-dihydropyridine, a method for the preparation thereof and pharmaceutical compositions containing them” (Boehringer Biochemia Robin S.p.A., priority 1986, dated 1991)
Where two headings read alike, the source gives them in different places.

Assays:
in vivo = conditions: mouse
conscious SH rats [1] = experiment: antihypertensive activity, oral, in conscious SH rats (mean blood pressure); type: in vivo; conditions: for decrease of the mean blood pressure (--BP), maximum / antihypertensive activity: conscious SH rats, oral; for decrease of the mean blood pressure (--BP), maximum: 1.6 mg/kg; for duration of antihypertensive effect (in words): SH rats
Method: The maximum hypotensive effect, proportional to the administered dose, takes place 5-7 hours after the administration and the blood pressure is maintained at the decreased level for further 4-5 hours, at least. […]
Dosages such as 0.2-0.4 mg/Kg are sufficient to stabilize gradually the mean B.P. to lower level for a 24 hrs period. The drop-out of the pharmacological treatment is not combined with an acute hypertensive rebound effect but in the following 2-3 days the mean blood pressure gradually rises to the initial values.

[2] = system: K^+ -depolarized rat aorta strips; experiment: inhibition of contractile responses to increasing Ca++ concentration in K+ depolarized rat aorta strips
mice = experiment: acute toxicity in mice (LD50, os and i.p.)
conscious SH rats [3] = conditions: in the same experimental models; cited from earlier work
beagle dogs [4] = conditions: dog, in vivo
beagle dogs [5] = experiment: tolerability in male and female beagle dogs, oral bolus administration; conditions: 1.5 mg/kg/day

| Compound | LD50 (in vivo; ip) [mg/kg] | LD50 (in vivo; po) [mg/kg] | other results |
| --- | --- | --- | --- |
| CCOC(=O)C1=C(CSCCN)NC(C)=C(C(=O)OC)C1c1ccccc1[N+](=O)[O-] (centres unmarked) [Compound 4] | 2 | 3 |  |
| CCOC(=O)C1=C(CSCCN)NC(C)=C(C(=O)OC)C1c1cccc(Cl)c1 (centres unmarked) [Compound 7] | 23 | 40 | decrease of the mean blood pressure (--BP), maximum (conscious SH rats [1]): higher than 85 mmHg |
| CCOC(=O)C1=C(C)NC(CSCC(N)C(=O)OCC)=C(C(=O)OCC)C1c1cccc([N+](=O)[O-])c1 (centres unmarked) [Compound 32] | 354 | 763 |  |
| CCOC(=O)C1=C(CSCCN(C)C)NC(C)=C(C(=O)OC)C1c1cccc([N+](=O)[O-])c1 (centres unmarked) [Compound 12] | 25 | 38 | decrease of the mean blood pressure (--BP), maximum (conscious SH rats [1]): higher than 85 mmHg |
| CCOC(=O)C1=C(CSCCCCN)NC(C)=C(C(=O)OC)C1c1cccc([N+](=O)[O-])c1 (centres unmarked) [Compound 18] | 4 | 11 |  |
| CCOC(=O)C1=C(CSCCN)NC(C)=C(C(=O)OC)C1c1cccc(C(F)(F)F)c1 (centres unmarked) [Compound 9] | 23 | 40 |  |
| CCOC(=O)C1=C(CSCCN)NC(C)=C(C#N)C1c1cccc([N+](=O)[O-])c1 (centres unmarked) [Compound 22] | 82 | 611 |  |
| CCOC(=O)C1=C(CSCCNCCC#N)NC(C)=C(C(=O)OC)C1c1cccc([N+](=O)[O-])c1 (centres unmarked) [Compound 20, 2-[2-[N-(2-cyanoethyl)aminoethyl]thio]methyl-3-ethoxycarbonyl-5-methoxycarbonyl-4-(m-nitrophenyl)-6-methyl-1,4-dihydropyridine] | 35 | 63 |  |
| COC(=O)C1=C(C)NC(C)=C(C(=O)OC)C1c1ccccc1[N+](=O)[O-] [nifedipine] |  |  | dependence of inhibition on incubation time [2]: not related to the incubation time |
| CCOC(=O)C1=C(CSCCN)NC(C)=C(C(=O)OC)C1c1ccccc1 (centres unmarked) [Compound 1] | 31 | 33 |  |
| CCOC(=O)C1=C(CSCC(N)CO)NC(C)=C(C(=O)OC)C1c1cccc([N+](=O)[O-])c1 (centres unmarked) [Compound 31] | 87 | 371 |  |
| CCOC(=O)C1=C(CSCC2CCCN2)NC(C)=C(C(=O)OC)C1c1cccc([N+](=O)[O-])c1 (centres unmarked) [Compound 16b] |  |  | LD50 in mice, i.p. (mice; mouse, in vivo, ip): 25 mg/kg; LD50 in mice, OS (mice; mouse, in vivo, po): 39 mg/kg |
| CCOC(=O)C1=C(CSCC(N)c2ccccc2)NC(C)=C(C(=O)OC)C1c1cccc([N+](=O)[O-])c1 (centres unmarked) [Compound 29] | 46 | 77 |  |
| CCOC(=O)C1=C(C)NC(CSCCNCCC#N)=C(C(=O)OCC)C1c1cccc([N+](=O)[O-])c1 (centres unmarked) [Compound 19] | 54 | 95 |  |
| CCOC(=O)C1=C(CSCC2CCCN2)NC(C)=C(C(=O)OC)C1c1cccc([N+](=O)[O-])c1 (centres unmarked) [Compound 16d] |  |  | LD50 in mice, i.p. (mice; mouse, in vivo, ip): 1000 mg/kg; LD50 in mice, OS (mice; mouse, in vivo, po): 1000 mg/kg; antihypertensive activity (conscious SH rats [1]; 3.2 mg/kg): practically inactive |
| CCOC(=O)C1=C(CSCC(C)N)NC(C)=C(C(=O)OC)C1c1cccc([N+](=O)[O-])c1 (centres unmarked) [Compound 30] | 50 | 42 |  |
| CCOC(=O)C1=C(CSCCNC(C)=O)NC(C)=C(C(=O)OC)C1c1cccc([N+](=O)[O-])c1 (racemic) [rac 2-acetylamino ethyl-thio-methyl, reference compound] |  |  | duration of antihypertensive effect (in words) (conscious SH rats [1]): shorter lasting antihypertensive effect |
| NNc1nncc2ccccc12 [hydralazine] |  |  | reflex tachicardia (other antihypertensive agents) (conscious SH rats [3]): often observed |
| CCOC(=O)C1=C(CSCCNC=O)NC(C)=C(C(=O)OC)C1c1cccc([N+](=O)[O-])c1 (centres unmarked) [Example 3, 2-(2-formylaminoethylthio)-methyl-3-ethoxycarbonyl-5-methoxycarbonyl-4-(m-nitrophenyl)-6-methyl-1.4-dihydropyridine] | 150 | 200 | acute toxicity (in words) (mice; mice where stated): low oral acute toxicity; death of dogs (beagle dogs [4]): do not die after two weeks treatment; tolerability in dogs (beagle dogs [4]): high tolerability; duration of antihypertensive effect (in words) (conscious SH rats [1]): long lasting effects; antihypertensive activity (conscious SH rats [1]; once daily, very low doses (for ex. 0.2 mg/kg/os)): pronounced and long lasting antihypertensive activity |
| CCOC(=O)C1=C(CSCCCN)NC(C)=C(C(=O)OC)C1c1cccc([N+](=O)[O-])c1 (centres unmarked) [Compound 17] | 16 | 22 |  |

| Compound | LD50 (in vivo; ip) [mg/kg] | LD50 (in vivo; po) [mg/kg] | other results |
| --- | --- | --- | --- |
| CCOC(=O)C1=C(CSCC2CCCN2)NC(C)=C(C(=O)OC)C1c1cccc([N+](=O)[O-])c1 (centres unmarked) [Compound 16c] |  |  | LD50 in mice, i.p. (mice; mouse, in vivo, ip): 27 mg/kg; LD50 in mice, OS (mice; mouse, in vivo, po): 55 mg/kg |
| CCOC(=O)C1=C(CSCCN)NC(C)=C(C(=O)OC)C1c1ccccc1SC (centres unmarked) [Compound 8] | 5 | 8 |  |
| CCCCNCCSCC1=C(C(=O)OCC)C(c2cccc([N+](=O)[O-])c2)C(C(=O)OC)=C(C)N1 (centres unmarked) [Compound 14] |  | 23 | LD50 in mice, i.p. (mice; mice, i.p.): 12 mg/kg |
| CCOC(=O)C1=C(CSCCN)NC(C)=C(C(=O)OC)C1c1cccc([N+](=O)[O-])c1 (racemic) [Compound 11, 2-(2-aminoethylthio)methyl-3-ethoxycarbonyl-5-methoxycarbonyl-4-(m-nitrophenyl)-6-methyl-1,4-dihydropyridine] | 22 | 52 | death of dogs (beagle dogs [5]): died after three days treatment; duration of antihypertensive effect (in words) (conscious SH rats [1]): long lasting effects; decrease of the mean blood pressure (--BP), maximum (conscious SH rats [1]): higher than 85 mmHg |
| CCOC(=O)C1=C(CSCCN)NC(C)=C(C(=O)OC)C1c1cccc(C#N)c1 (centres unmarked) [Compound 28] | 43 | 34 |  |
| CCOC(=O)C1=C(C)NC(CSCCN)=C(C(=O)OCC)C1c1cccc([N+](=O)[O-])c1 (centres unmarked) [Compound 10] | 20 | 21 | decrease of the mean blood pressure (--BP), maximum (conscious SH rats [1]): higher than 85 mmHg |
| CCOC(=O)C1=C(CSCCNC=O)NC(C)=C(C(=O)OC)C1c1ccccc1SC (centres unmarked) [N-formylation of compound 8] |  | 90 |  |
| CCOC(=O)C1=C(CSCC2CCCN2)NC(C)=C(C(=O)OC)C1c1cccc([N+](=O)[O-])c1 (centres unmarked) [Compound 16a] |  |  | LD50 in mice, i.p. (mice; mouse, in vivo, ip): 7 mg/kg; LD50 in mice, OS (mice; mouse, in vivo, po): 17 mg/kg |
| CCOC(=O)C1=C(C)NC(CSCCN)=C(C(=O)OCC)C1c1ccccc1Cl (centres unmarked) [Compound 5] | 9 | 12 | decrease of the mean blood pressure (--BP), maximum (conscious SH rats [1]): higher than 85 mmHg |
| CCOC(=O)C1=C(CSCCN)NC(C)=C(C(=O)OC)C1c1ccc(F)cc1 (centres unmarked) [Compound 27] | 28 | 46 |  |
| CCOC(=O)C1=C(CSCCN)NC(C)=C(C(=O)OCCN(C)Cc2ccccc2)C1c1cccc([N+](=O)[O-])c1 (centres unmarked) [Compound 23] | 32 | 91 |  |
| COC(=O)C1=C(C)NC(CSCCN)=C(C(=O)OC)C1c1cccc([N+](=O)[O-])c1 (centres unmarked) [Compound 25] | 25 | 53 |  |
| CCOC(=O)C1=C(CSCCN)NC(C)=C(C(=O)OC)C1c1ccccc1Cl (centres unmarked) [Compound 6, 2-(2-aminoethylthio)methyl-3-ethoxycarbonyl-5-methoxycarbonyl-4-(2-chlorophenyl)-6-methyl-1,4-dihydropyridine] | 4 | 5 | decrease of the mean blood pressure (--BP), maximum (conscious SH rats [1]): higher than 85 mmHg |
| CCOC(=O)C1=C(CSCCN)NC(C)=C(C(=O)OC)C1c1cccc(OC)c1 (centres unmarked) [Compound 26] | 59 | 82 |  |
| CCOC(=O)C1=C(CSCCN)NC(C)=C(C(=O)OC)C1c1cccc([N+](=O)[O-])c1 (centres unmarked) [Compound 13] | 8 | 21 |  |
| CCOC(=O)C1=C(C)NC(CSCCN)=C(C(=O)OCC)C1c1ccccc1C(F)(F)F (centres unmarked) [Compound 3] | 5 | 9 |  |
| CCCCNCCSCC1=C(C(=O)OCC)C(c2cccc([N+](=O)[O-])c2)C(C(=O)OC)=C(C)N1 (centres unmarked) [Compound 15] |  |  | LD50 in mice, i.p. (mice; mice, i.p.): 39 mg/kg; LD50 in mice, OS (mice; mice, oral (os)): 40 mg/kg; death of dogs (beagle dogs [5]): died after three days treatment |
| CCOC(=O)C1=C(CSCCN)NC(C)=C(C(=O)OC)C1c1ccccc1C(F)(F)F (centres unmarked) [Compound 2] | 2 | 2 | decrease of the mean blood pressure (--BP), maximum (conscious SH rats [1]): higher than 85 mmHg |
| CCOC(=O)C1=C(CSCCN)NC(C)=C(C(=O)OC(C)C)C1c1cccc([N+](=O)[O-])c1 (centres unmarked) [Compound 24] | 25 | 53 |  |
| CCOC(=O)C1=C(CSCCN)NC(C)=C([N+](=O)[O-])C1c1cccc([N+](=O)[O-])c1 (centres unmarked) [Compound 21] | 108 | 451 |  |
